Where a name gives a salt, the structure may show the parent alone.
System: HCT116
Test: efficacy (fitted maximal change in viability relative to DMSO control); higher = less cytotoxic (negative = loss of viability)
Conditions: 48 h
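Also: Luminescence-based viability readout, five doses per compound, normalized against on-plate DMSO and empty-well controls, followed by dose-response curve fitting for every drug.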

Row | SMILES | efficacy [%]
1 | CN(CC(=O)N(Cc1ccc(C2CCCCC2)cc1)c1ccc(C(=O)O)c(O)c1)[S+](=O)([O-])c1c(F)c(F)c(F)c(F)c1F [BP-1-102] | -10.2
2 | O=c1sn(-c2cccc3ccccc23)c(=O)n1Cc1ccccc1 [Tideglusib] | -7.08
3 | CC(C)[S+](=O)([O-])c1ccc2nccc(Nc3ccc4scnc4c3)c2c1 [GSK-872] | -37.8
4 | CO[C@H]1C[C@@H]2CC[C@@H](C)[C@@](O)(O2)C(=O)C(=O)N2CCCC[C@H]2C(=O)O[C@H]([C@H](C)C[C@@H]2CC[C@@H](OC(=O)C(C)(CO)CO)[C@H](OC)C2)CC(=O)[C@H](C)/C=C(\C)[C@@H](O)[C@@H](OC)C(=O)[C@H](C)C[C@H](C)/C=C/C=C/C=C/1C [Temsirolimus] | -13.9
5 | Cc1cc(C)cc(Oc2ccc(CNC(=O)[C@H](C)N)cc2C)c1 [SGC-2085] | -101
6 | CC(=O)O[C@@]12CO[C@@H]1C[C@H](O)[C@]3(C)[C@@H]2[C@H](OC(=O)C4=CC=CC=C4)[C@]5(O)C[C@H](O)/C(=C(/[C@@H](O)C3=O)C5(C)C)C [10-Deacetylbaccatin] | -50.2
7 | Nc1cccc2c1CN([C@H]1CCC(=O)NC1=O)C2=O [Lenalidomide] | -14
8 | COc1ccc(C(=O)N2CCN(c3ccc4c(c3)CCC(=O)N4)CC2)cc1OC [Vesnarinone] | -21.4
9 | OC1=CC2=C(C(=C1)O)C(=O)\C(=C(/O2)C3=CC(=C(O)C=C3)O)O [Quercetin] | -10.2
10 | CCCCCCCCCCCCCCCCOCCCO[P](O)(=O)COC(CO)CN1/C=C\C(=N/C1=O)N (stereo not drawn) [Brincidofovir] | -6.44
11 | [NH2][Pt]([NH2])([Cl])[Cl] [Cisplatin] | -25
12 | COc1ccc(-n2c(C)c([N+](=O)[O-])c3ccc(O)cc32)cc1 [ID-8] | -14.4
13 | OC1=CC=C(C=C1)\C2=C\OC3=C(C(=CC(=C3)O)O)C2=O [Genistein] | -33.2
14 | CC[C@]12CC[C@H]3[C@@H](CCC/4=C/C(=O)CC[C@H]34)[C@@H]1\C=C/[C@@]2(O)C#C [Gestodene] | -21.8
15 | CC(=O)OCCN1C(=O)c2c(C)nc3ccc([S+](=O)([O-])N4CCOCC4)cc3c2C1=O [Ivachtin] | -16.7
16 | O=C(Nc1ccc(F)c(C(F)(F)F)c1)Nc1nnc(-c2ccncc2)s1 | -29
17 | N[C@@H](Cc1ccc(N(CCCl)CCCl)cc1)C(=O)O [Melphalan] | -56.5
18 | CN(CCOc1ccc(CC2SC(=O)NC2=O)cc1)c1ccccn1 (stereo not drawn) [Rosiglitazone] | -13.8
19 | Oc1ccc(C2CNCCc3c2cc(O)c(O)c3Cl)cc1 (stereo not drawn) [Fenoldopam] | -23.6
20 | COc1cc2c(cc1OC)CN(CCc1ccc(NC(=O)c3cccc4c(=O)c5cccc(OC)c5[nH]c34)cc1)CC2 [Elacridar] | -16.8
21 | Cc1cc(O)c2c(c1)C(=O)c1cc(O)cc(O)c1C2=O [Emodin] | -31.9
22 | NC(=O)c1noc([C@H](CCCC2CCCCC2)CC(=O)NO)n1 | -86.4
23 | CC(=O)Nc1ccc(OC[C@](C)(O)C(=O)Nc2ccc([N+](=O)[O-])c(C(F)(F)F)c2)cc1 [Andarine] | -7.63
24 | O=C(NC1CCOCC1)c1ccc(-c2cc(-c3c[nH]nc3-c3ccccn3)ccn2)cc1 | -24
25 | CCN(CC)CCCC(C)Nc1ccnc2cc(Cl)ccc12 (stereo not drawn) [Chloroquine] | -24.3

Row | SMILES | efficacy [%]
26 | O=C(/C=C/c1ccc(O)cc1)c1ccc(O)cc1O [Isoliquiritigenin] | -62
27 | CCCN[S+](=O)([O-])Nc1ncnc(OCCOc2ncc(Br)cn2)c1-c1ccc(Br)cc1 [Macitentan] | -63.7
28 | O=C(CCCCCCC(=O)Nc1ccccc1)NO [Vorinostat (SAHA)] | -81
29 | CCc1ccc(CCOc2ccc(CC3SC(=O)NC3=O)cc2)nc1 (stereo not drawn) [Pioglitazone hydrochloride] | 16.5
30 | O=C(O)c1cccc(-c2noc(-c3ccccc3F)n2)c1 [PTC-124] | -22.5
31 | CCN1C(=O)\C(=C/C2=CN=C(NCCC3CCN(C)CC3)N=C12)C4=CC=C(C=C4Cl)C5=CN=CC(=N5)C [FRAX-1036] | -62.9
32 | Cn1c(/C=C/CO)c(CO)c2c1C(=O)C=C(N1CC1)C2=O [Apaziquone] | -8.27
33 | COc1c(Cl)cc2c([nH]c3cnccc32)c1NC(=O)c1cccnc1C [MLN-120B] | -95.3
34 | CCC(C)N(C)C(=O)c1cc2ccccc2c(-c2ccccc2Cl)n1 (stereo not drawn) | -46.4
35 | CN(C)C(=O)c1cc2cnc(Nc3ccc(N4CCNCC4)cn3)nc2n1C1CCCC1 [Ribociclib (LEE011)] | -12.5
36 | CC1=NN(c2ccc(C)c(C)c2)C(=O)/C1=N/Nc1cccc(-c2cccc(C(=O)O)c2)c1O [Eltrombopag olamine] | -17.2
37 | Cc1c(-c2c(-c3ccc(F)o3)sc3ncnc(O[C@@H](Cc4ccccc4OCc4ccnn4CC(F)(F)F)C(=O)O)c23)ccc(OCCN2CCN(C)CC2)c1Cl | 9.5
38 | CCOC(=O)[C@@H](N)CCC(=O)N[C@@H](CSCc1ccccc1)C(=O)N[C@@H](C(=O)OCC)c1ccccc1 [Ezatiostat] | -18.5
39 | CC(C)CC(N(C)C)C1(c2ccc(Cl)cc2)CCC1 (stereo not drawn) [Sibutramine hydrochloride] | -45.3
40 | NC(=O)c1ncn([C@@H]2O[C@H](CO)[C@@H](O)[C@H]2O)n1 [Ribavirin] | 18.5
41 | C[C@@H]1CC2=C(C=C3OCOC3=C2)C(=N\N1C(C)=O)/C4=CC=C(N)C=C4 [Ampanel] | -12.4
42 | COCC1(CO)C(=O)C2CCN1CC2 (stereo not drawn) [APR-246] | -7.36
43 | Cc1ccc([S+](=O)([O-])Nc2nc3ccccc3nc2Nc2ccc3nsnc3c2)cc1 [XL-147] | -12
44 | O=P(O)(O)C(O)(Cc1cccnc1)P(=O)(O)[O][Na] (stereo not drawn) [Risedronate sodium] | -16.1
45 | C/C=C(/C)C(=O)O[C@H]1C(C)=CC23C(=O)C(C=C(CO)[C@@H](O)[C@]12O)[C@H]1[C@@H](C[C@H]3C)C1(C)C (stereo partly drawn) [Ingenol mebutate] | -63.6
46 | CCN1\C=C(C(O)=O)/C(=O)C2=C1C(=C(N3CCNC(C)C3)C(=C2)F)F (stereo not drawn) [Lomefloxacin hydrochloride] | -18.8
47 | COc1nccc(-c2c(-c3ccc(F)cc3)ncn2C2CCNCC2)n1 | -39.7
48 | CCCn1c(=O)c2[nH]c(C34CC5CC3C[C@@H](C5)C4)nc2n(CCC)c1=O [Rolofylline] | -6.71
49 | FC(F)(F)c1ccc(CNc2ccc(Cc3c[nH]c4ncc(Cl)cc34)cn2)cn1 [Pexidartinib] | -21.9
50 | O=C(O)CNC(=O)c1ncc(-c2cccc(Cl)c2)cc1O [Vadadustat] | -15.6

Row | SMILES | efficacy [%]
51 | CNC(=O)c1ccc(N2C(=S)N(c3cnc(C#N)c(C(F)(F)F)c3)C(=O)C23CCC3)cc1F [Apalutamide] | -24.3
52 | COC1=CC=C(C=C1)/C2=C(O)/C(=O)C3=C(O)C=C(O)C(=C3O2)CC=C(C)C [Icaritin] | -16.5
53 | O=C(O)CCNc1cc(N2CCc3ccccc3CC2)nc(-c2cccnc2)n1 [GSK-J2] | -21.7
54 | CC(=O)OCC(=O)[C@@]12OC(C)(C)O[C@@H]1C[C@H]3[C@@H]4C[C@H](F)C/5=C/C(=O)/C=C\[C@]5(C)[C@@]4(F)[C@@H](O)C[C@]23C [Fluocinonide] | -12.9
55 | COc1cc(NC(=O)c2ccc(-c3ccc(Cl)cc3)o2)cc(OC)c1 | -43.9
56 | C[C@]12CCC3[C@@H](CC[C@H]4NC(=O)\C=C/[C@]34C)[C@@H]1CC[C@@H]2C(=O)NC5=CC(=CC=C5C(F)(F)F)C(F)(F)F (stereo partly drawn) [Dutasteride] | -20
57 | CN(N=O)C(=O)N[C@@H]1[C@@H](O)[C@H](O)[C@@H](CO)O[C@@H]1O [Streptozocin] | -15.5
58 | N#C/C(=C\c1ccc(O)c(O)c1)C(=O)NCc1ccccc1 [Tyrphostin B42] | -71.9
59 | Cc1noc(-c2ccc(CSCCC(=O)O)cc2)c1NC(=O)OC(C)c1ccccc1Cl (stereo not drawn) | -36.3
60 | O=C([C@@H](Cc1cccc(C(F)(F)F)c1)N[S+](=O)([O-])c1cc(F)c2c(c1)CCNC2)N1CCCC1 [(R)-PFI-2] | -23.9
61 | C[C@H]1C[C@@H]2[C@H](CC[C@@]3(C)[C@H]2CC[C@]3(OC(C)=O)C(C)=O)[C@@]\4(C)CCC(=O)\C=C14 [Medroxyprogesterone acetate] | -13.3
62 | CO[C@H]1CC[C@]2(CC1)CC3=C(C=C(C=C3)C4=CN=CC(=C4)C#CC)[C@@]2/5\N=C(C)/C(=N5)N | -11.3
63 | Clc1ccc(-c2nc3sccn3c2/C=N/OCc2ccc(Cl)c(Cl)c2)cc1 [CITCO] | -19.4
64 | CCOC(=O)[C@H](CCc1ccccc1)N[C@@H](C)C(=O)N1[C@H](C(=O)O)C[C@@H]2CCC[C@@H]21 [Ramipril] | -13.7
65 | CCOCOC[C@H](C[C@H](C)C(=O)NO)NC(=O)c1ccc(Oc2ccccc2)cc1 [ONO-4817] | -33.1
66 | CC(C)OC(=O)[C@H](C)N[P@](=O)(OC[C@H]1O[C@@H](N2\C=C/C(=O)NC2=O)[C@](C)(F)[C@@H]1O)OC3=CC=CC=C3 [Sofosbuvir] | -5.68
67 | CC1(C)CNc2cc(NC(=O)c3cccnc3NCc3ccncc3)ccc21 [Motesanib] | 10.7
68 | C=C(C)[C@@H]1CC[C@]2(C(=O)O)CC[C@]3(C)[C@H](CC[C@@H]4[C@@]5(C)CC[C@H](O)C(C)(C)[C@@H]5CC[C@]43C)[C@@H]12 [Betulinic acid] | 14.5
69 | C[C@H](O)[C@H]1[C@@H]2[C@H](C)C(=C(\N2C1=O)C(O)=O)/S[C@@H]3CN[C@H](CN[S+](N)([O-])=O)C3 [Doripenem] | 5.86
70 | Cn1c(-c2ccccc2C(F)(F)F)nnc1C12CCC(c3noc(C4CC(F)(F)C4)n3)(CC1)CC2 [MK-4101] | -26.2
71 | NC(=O)c1cccc(-c2cccc(OC(=O)NC3CCCCC3)c2)c1 [KDS-4103] | -18
72 | Cc1ncc(Cl)cc1NCc1ccc(C(=O)NC(CC2CCCC2)C(=O)NC2CC2)s1 (stereo not drawn) | -78.2
73 | C[N]1C=C(C2=C1C=CC=C2)\C3=C(\C(=O)NC3=O)C4=C5CC(CN)CC[N]5C6=C4C=CC=C6 (stereo not drawn) [Ro-31-8425] | -33.7

Reference: the supplement of paper PMC10290057
